Experimental findings from ChEMBL document CHEMBL1158836, “Cytotoxic sesquiterpenes from Aplysia dactylomela” (J Nat Prod, 2005) are described below.

In assay [1] the test system is Vero. In words: Cytotoxicity against african green monkey Vero cells in log-phase after 48 hrs by MTT assay. The class given is cell-based. The settings on record: Chlorocebus sabaeus. (Tetrazolium assays rely on reduction of a dye to a coloured formazan, in cell work by metabolically active cells.)
The subject of assay [2] is HeLa. Kind of assay: Cytotoxicity against human HeLa cells in log-phase after 48 hrs by MTT assay. It is filed as functional, cell-based.
The subject of assay [3] is HEp-2. Kind of assay: Cytotoxicity against human Hep2 cells in lag-phase after 48 hrs by MTT assay. It is filed as functional, cell-based. The following applies: HEp-2, 48 h.
Assay [4] relates to HeLa. Kind of assay: Cytotoxicity against human HeLa cells in lag-phase after 48 hrs by MTT assay. It is filed as functional, cell-based.
Assay [5] relates to HEp-2. In words: Cytotoxicity against human Hep2 cells in log-phase after 48 hrs by MTT assay. It is filed as functional, cell-based. The settings on record: HEp-2, 48 h.
Assay [6] relates to Vero. Kind of assay: Cytotoxicity against african green monkey Vero cells in lag-phase after 48 hrs by MTT assay. The class given is cell-based. The following applies: Chlorocebus sabaeus.

Starred links: 1 amine or outer side, 2 acyl side, 3 side chain; linkers in the order of their positions; H or OH if unused. Positions of bridges follow the written chain, without caps; N, C: chain ends. Non-standard residues stand in square brackets, D forms with d. Residues, ends and D or L forms follow the SMILES beside them. Chains are numbered I, II in the order given. Actinocin(1to9) = Cc1c2oc3c(C)ccc(C(=O)[*:2])c3nc-2c(C(=O)[*:1])c(N)c1=O; NMeV = CN[C@H](C(=O)O)C(C)C; Sar = CNCC(=O)O

In general, IC50 refers to the midpoint of a concentration-inhibition curve. Consider `Cc1c2oc3c(C)ccc(C(=O)N[C@@H]4C(=O)N[C@H](C(C)C)C(=O)N5CCC[C@H]5C(=O)N(C)CC(=O)N(C)[C@@H](C(C)C)C(=O)O[C@@H]4C)c3nc-2c(C(=O)N[C@@H]2C(=O)N[C@H](C(C)C)C(=O)N3CCC[C@H]3C(=O)N(C)CC(=O)N(C)[C@@H](C(C)C)C(=O)O[C@@H]2C)c(N)c1=O` [DACTINOMYCIN] (I: T[dV]P[Sar][NMeV] / II: T[dV]P[Sar][NMeV]; ester I:1-I:C, II:1-II:C; linker I:N-II:N via Actinocin(1to9)), for which the IC50 in assay [1] stood at 0.001 µM; in assay [2] it was 0.001 µM; in assay [3], 0.191 µM; in assay [4], 0.011 µM; in assay [5], 0.006 µM; in assay [6], 0.071 µM.

Turning to `CC(=O)O[C@@H]1C[C@@H](Br)C(C)(C)O[C@]1(C)[C@H]1CC[C@](C)(Cl)[C@@H](Br)C1`, the IC50 is 33.6 µM in assay [1]; more than 42 µM in assay [2]; more than 42 µM in assay [3]; more than 42 µM in assay [4]; more than 42 µM in assay [5]; 31.9 µM in assay [6].

On to `C=C1C[C@H](OC(C)=O)[C@H](Br)C(C)(C)[C@@]12CCC(C)=C(Cl)C2` [ACETYLELATOL], for which the IC50 is 44.6 µM in assay [1]; 13.7 µM in assay [2]; 28 µM in assay [3]; 50.3 µM in assay [4]; 22.4 µM in assay [5]; more than 53 µM in assay [6].

Take `C=C1C[C@H](OC(C)=O)[C@H](Br)C(C)(C)[C@]12CC=C(C)CC2` [ACETYLDESCHLOROELATOL]: the IC50 in assay [1], in assay [2], in assay [3], in assay [4], in assay [5] and in assay [6] was more than 58 µM each time.

For `CC1(C)O[C@](C)([C@H]2CC[C@](C)(Cl)[C@@H](Br)C2)[C@H](O)C[C@H]1Br` [CAESPITOL], the IC50 in assay [1] is 25.8 µM; in assay [2] it was 30.6 µM; in assay [3], more than 46 µM; in assay [4] it was 26.9 µM; in assay [5], more than 46 µM; in assay [6] it was 25.5 µM.

`C=C1C[C@H](O)[C@H](Br)C(C)(C)[C@]12CC=C(C)CC2` [DESCHLOROELATOL]: the IC50 in assay [1], in assay [2], in assay [3], in assay [4], in assay [5] and in assay [6] was more than 67 µM in each case.

With `C=C1C[C@H](O)[C@H](Br)C(C)(C)[C@@]12CCC(C)=C(Cl)C2` [ELATOL], the IC50 in assay [1] was determined as 25 µM; in assay [2], 1.3 µM; in assay [3] it was 2.4 µM; in assay [4] it was 4.1 µM; in assay [5], 2 µM; in assay [6], 2.3 µM.
